The source made the active and inactive calls.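 How the source made its calls: active means mean IC50 below 20 µM in each of the two panels, so potent in both; inactive means the rest.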
Target: Neuropilin-1 (Homo sapiens) (UniProt O14786)
Experiment: NRP-1 b1b2 CendR peptide binding inhibitors, dose response, biochemical, FP and AlphaScreen panel (AID 651650)
Settings: NRP-1 b1b2 / RPARPAR peptide binding, FP or AlphaScreen
[1] = AlphaScreen, run 1, individual panel run IC50
[2] = FP, run 1, individual panel run IC50
[3] = FP, run 2, individual panel run IC50

Chain of Neuropilin-1 (Homo sapiens) (O14786 whole entry, looked up): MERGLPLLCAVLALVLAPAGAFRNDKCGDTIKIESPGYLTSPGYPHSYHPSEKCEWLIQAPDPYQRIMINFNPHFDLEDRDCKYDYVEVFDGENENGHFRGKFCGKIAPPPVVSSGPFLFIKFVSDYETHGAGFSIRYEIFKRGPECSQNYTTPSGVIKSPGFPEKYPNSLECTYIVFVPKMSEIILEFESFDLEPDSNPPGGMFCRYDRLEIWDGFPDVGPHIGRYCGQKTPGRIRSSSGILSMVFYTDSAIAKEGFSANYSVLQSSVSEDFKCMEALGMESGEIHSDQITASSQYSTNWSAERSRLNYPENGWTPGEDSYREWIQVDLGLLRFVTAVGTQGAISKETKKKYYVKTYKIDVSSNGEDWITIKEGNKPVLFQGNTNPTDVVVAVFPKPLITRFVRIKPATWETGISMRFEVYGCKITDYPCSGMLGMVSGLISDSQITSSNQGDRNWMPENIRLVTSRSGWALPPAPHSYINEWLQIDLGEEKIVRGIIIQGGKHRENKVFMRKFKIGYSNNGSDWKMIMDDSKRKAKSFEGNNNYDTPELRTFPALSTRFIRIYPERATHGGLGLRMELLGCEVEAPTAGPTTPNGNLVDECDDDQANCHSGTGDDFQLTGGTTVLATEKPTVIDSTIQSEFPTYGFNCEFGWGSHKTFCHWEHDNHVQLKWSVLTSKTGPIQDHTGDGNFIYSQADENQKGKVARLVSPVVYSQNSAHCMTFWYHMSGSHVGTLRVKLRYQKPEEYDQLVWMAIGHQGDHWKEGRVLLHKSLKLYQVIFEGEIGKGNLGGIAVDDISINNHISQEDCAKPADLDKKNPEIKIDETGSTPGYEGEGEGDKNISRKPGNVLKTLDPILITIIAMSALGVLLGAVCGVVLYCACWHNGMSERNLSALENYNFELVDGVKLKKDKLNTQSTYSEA

Row | Structure (SMILES) | IC50 (AlphaScreen, mean of runs) | IC50 [1] [µM] | IC50 (FP, mean of runs) | IC50 [2] [µM] | IC50 [3] [µM]
1 | O=C(NNc1ncnc2c1cnn2-c1ccc(F)cc1)c1ccco1 | > 100 µM (inactive) | > 100 | > 95 µM (inactive) | > 95 | > 95
2 | Cc1csc(NC(C)c2nc3cc(C(F)(F)F)ccc3n2CCOCCO)n1 (stereo not given) | > 100 µM (inactive) | > 100 | > 95 µM (inactive) | > 95 | > 95
3 | C[C@@H](NC(=O)c1[nH]cnc1C(=O)Nc1cccc(Cl)c1)c1ccccc1 | inactive | 21.8 | > 95 µM (inactive) | > 95 | > 95
4 | Cc1ccccc1NC(=S)NC(=O)COc1ccccc1C | 6.67 µM | 6.67 | inactive | 32.6 | 35
5 | CCN(CC)C(=O)CSc1nnc(-c2c[nH]c3ccccc23)o1 | > 100 µM (inactive) | > 100 | > 95 µM (inactive) | > 95 | > 95
6 | COc1cc(C(=O)Nc2cc3c(cc2N2CCCCC2)n(C)c(=O)n3C)cc(OC)c1OC | inactive | 85 | > 95 µM (inactive) | > 95 | > 95
7 | CN(c1ccc(OCC(=O)OCC(=O)Nc2ccc([N+](=O)[O-])cc2)cc1)S(=O)(=O)c1cccs1 | inactive | 44.1 | > 95 µM (inactive) | > 95 | > 95
8 | CC(=O)Nc1cccc(-c2csc(NCc3ccccc3)n2)c1 | > 100 µM (inactive) | > 100 | > 95 µM (inactive) | > 95 | > 95
9 | C=CCNC(=O)c1onc(CSc2ccc(F)c(F)c2)c1C(=O)NCC=C | > 100 µM (inactive) | > 100 | > 95 µM (inactive) | > 95 | > 95
10 | COc1ccc(NC(=O)C(C)Sc2ccccc2)cc1 (stereo not given) | > 100 µM (inactive) | > 100 | > 95 µM (inactive) | > 95 | > 95
11 | O=C(CSc1nnc(Cc2ccccc2)n1Cc1ccccc1)NCc1ccco1 | > 100 µM (inactive) | > 100 | > 95 µM (inactive) | > 95 | > 95
12 | CCn1c(N)c(C(=O)NCc2cccnc2)sc1=S | 13 µM | 13 | inactive | > 95 | 30.1
13 | CCc1onc(C)c1C(=O)Nc1cc(C)ccc1OC | 16 µM | 16 | > 95 µM (inactive) | > 95 | > 95
14 | CC(=O)Nc1ccccc1OCC(=O)N(Cc1ccccc1)C(C)C | > 100 µM (inactive) | > 100 | > 95 µM (inactive) | > 95 | > 95
15 | O=C(NCCN1CCN(C(=O)c2cccc(OC(F)F)c2)CC1)c1cccc(OC(F)F)c1 | > 100 µM (inactive) | > 100 | > 95 µM (inactive) | > 95 | > 95
16 | Cc1ccc(S(=O)(=O)N2[C@@H](c3ccc(Cl)cc3)C(C(=O)OC(C)(C)C)=CC[C@H]2c2ccc(Cl)c(Cl)c2)cc1 | inactive | 41 | > 95 µM (inactive) | > 95 | > 95
17 | CCc1ccc(NS(=O)(=O)c2c(C(=O)N3CCCCCC3)c(C)n(C)c2C)cc1 | > 100 µM (inactive) | > 100 | > 95 µM (inactive) | > 95 | > 95
18 | O=C(NCc1ccccc1)c1cccc(S(=O)(=O)N2CCCCC2)c1 | inactive | 39.8 | > 95 µM (inactive) | > 95 | > 95
19 | O=C(NCc1ccccc1)c1ccc(N2CCC3(CC2)CC(c2ccc(Cl)cc2)=NO3)c([N+](=O)[O-])c1 | inactive | 22 | > 95 µM (inactive) | > 95 | > 95
20 | COc1ccc(C(=O)N2CCC(C)(C(=O)NS(=O)(=O)C3CC3)C2)cc1F (stereo not given) | > 100 µM (inactive) | > 100 | > 95 µM (inactive) | > 95 | > 95
21 | COc1ccc(/C=N/NC(=O)c2ccccc2Cl)cc1CSc1nc2ccccc2s1 | > 100 µM (inactive) | > 100 | > 95 µM (inactive) | > 95 | > 95
22 | COc1cc(C(=O)NCc2ccccc2)cc(Br)c1OC | > 100 µM (inactive) | > 100 | > 95 µM (inactive) | > 95 | > 95
